Measurements as given in US20040023861A1, “Cysteinyl leukotriene receptor 2 (cysl t2)” (priority 2000, published 2004).

Assays:
[1] = biological target: T1, HIPHUM0000007 (Homo sapiens, UniProt Q9NS75); assay: Antagonist activity against 20 nM LTD4 (NFAT luciferase reporter gene assay and FLIPR assay) at HIPHUM0000007; assay type: cell-based; settings: concentration dependent inhibition of 20 nM LTD4; reporter gene and FLIPR assays
T1 construct: expressed in transfected cells; host or cells: CHO cells with stably integrated NFAT-luciferase reporter (CHONFAT)
T1 sequence (Q9NS75 1-346): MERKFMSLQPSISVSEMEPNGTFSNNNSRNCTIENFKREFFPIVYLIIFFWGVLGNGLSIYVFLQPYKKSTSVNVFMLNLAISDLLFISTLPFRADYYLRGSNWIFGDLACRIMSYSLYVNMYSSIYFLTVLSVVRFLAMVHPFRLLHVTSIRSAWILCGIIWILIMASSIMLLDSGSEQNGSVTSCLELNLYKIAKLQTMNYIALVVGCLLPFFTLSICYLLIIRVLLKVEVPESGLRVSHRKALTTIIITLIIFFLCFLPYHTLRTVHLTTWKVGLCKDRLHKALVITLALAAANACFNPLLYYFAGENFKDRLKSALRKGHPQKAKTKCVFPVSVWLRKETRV

[2] = biological target: T2, CysLT1 (Homo sapiens, UniProt Q9Y271); assay: Antagonist activity against 20 nM LTD4 (NFAT luciferase reporter gene assay and FLIPR assay) at CysLT1; assay type: cell-based; settings: concentration dependent inhibition of 20 nM LTD4; reporter gene and FLIPR assays
T2 construct: expressed in transfected cells; host or cells: CHO cells with stably integrated NFAT-luciferase reporter (CHONFAT)
T2 sequence (Q9Y271 1-337): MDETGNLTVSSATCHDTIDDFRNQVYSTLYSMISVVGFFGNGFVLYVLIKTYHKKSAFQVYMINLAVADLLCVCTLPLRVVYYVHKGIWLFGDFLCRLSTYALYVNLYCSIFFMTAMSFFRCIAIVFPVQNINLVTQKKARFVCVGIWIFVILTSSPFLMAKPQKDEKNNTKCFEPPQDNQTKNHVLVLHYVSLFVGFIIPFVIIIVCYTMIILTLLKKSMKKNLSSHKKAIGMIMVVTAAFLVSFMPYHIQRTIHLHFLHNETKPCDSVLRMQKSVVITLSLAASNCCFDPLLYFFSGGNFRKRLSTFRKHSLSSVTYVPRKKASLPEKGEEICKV

[3] = system: anesthetized rats; assay: Effect of LTD4 on hemodynamics and ECG parameters in anesthetized rats; assay type: in vivo
Experimental: Adult male wistar rats (270-300 g) were used. On arrival in the animal care unit, rats were housed with free access to food and water. Room temperature (19-20° C.), relative humidity (55-60%) and light (switched on 7:00am-7:00pm) were maintained constant. An adaptation period of at least 6 days was respected before experimentation.
Aninals (n=3-4) were anesthetized by administration of pentobarbital (50/60 mg/kg, i.v.). Then, animals were placed on a heatcd (36° C.) operating table and ventilated with room air (Harvard respirator, 50-52 str/min, 7 ml/kg tidal volume). Systemic arterial blood pressure was monitored routinely from the left carotid artery (P23XL, Gould). Body temperature was controlled with a thermistor probe (Digi-sense, Cole-Parmer) and maintained within physiological range throughout the experiment by heating when necessary. A Lead 11 ECG was recorded via needle electrodes to evaluate ECG intervals and heart rate and a corrected QT interval by linear regression (QTL) was calculated according to Todt(13). All parameters were monitored on a Gould thermal array polyrecorder.
The volume of injection was normalized to 1 ml/kg. In rats receiving CysLT1 antagonists as pretreatment, the compounds were previously dissolved in ethanol (2% final concentration) or distilled water and mixed in encapsin 6% for intragastric afministration (single dose of 3 μmol/kg-10 ml/kg total volume).
Results were expressed as mean±SEM Hemodynamic and electrocardiographic variables were compared using Anova followed by multiple comparisons tests (Newmam Keuls or Tukey's test as appropriate). Values of p <0.05 were considered significant.

CCCCC/C=C\C\C=C/C=C/C=C/[C@@H](Sc1ccc(C(=O)O)cc1)[C@@H](O)CCCC(=O)O [BayU9773]
antagonist activity at HIPHUM0000007 [1]: low potency | antagonist activity at CysLT1 [2]: low potency

CCCCC/C=C\C\C=C/C=C/C=C/[C@@H](SC[C@H](N)C(=O)NCC(=O)O)[C@@H](O)CCCC(=O)O [LTD4]
effect on blood pressure ([3]; LTD4 i.v. injection 20, 40 and 100 nmol/kg, anesthetized rats): affected blood pressure in a dose-dependent manner | reduction in heart rate ([3]; bolus intravenous administration of LTD4, anesthetized rats): 20-30% | rhythm disturbances (arrhythmias) ([3]; repeated administration of LTD4, doses in the range of 40 to 60 nmol/kg, anaesthetised rats): induced marked rhythm disturbances

CN(C)C(=O)CCSC(SCCC(=O)O)c1cccc(/C=C/c2ccc3ccc(Cl)cc3n2)c1 (stereo not drawn) [MK571]
effect of CysLT1 antagonist on LTD4 response on blood pressure ([3]; antagonist 3 μmol/kg oral 10 min or 0.3 μmol/kg i.v. 5 min before LTD4 i.v., anesthetized rats): modest partial inhibition | effect of pretreatment on LTD4-induced reduction in heart rate ([3]; pretreatment with CysLT1 antagonist before LTD4 i.v., anesthetized rats): not significantly altered

CC(C)(O)c1ccccc1CC[C@@H](SCC1(CC(=O)O)CC1)c1cccc(/C=C/c2ccc3ccc(Cl)cc3n2)c1 [Montelukast]
antagonist activity at HIPHUM0000007 [1]: inactive

COc1cc(C(=O)NS(=O)(=O)c2ccccc2C)ccc1Cc1cn(C)c2ccc(NC(=O)OC3CCCC3)cc12 [Zafirlukast]
antagonist activity at CysLT1 [2]: acted as antagonists
